In PubChem BioAssay (NCI):
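All cell lines were grown in 96-well plates and treated with compound for 48 hours. The concentration for 50% growth inhibition is given as GI50. TGI: total growth inhibition.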

Legend:
Test in all cases: DTP human tumour cell line panel, 48 h
[1] = system: BT-549 breast
[2] = system: EKVX NSCLC
[3] = system: HCT-15 colon
[4] = system: HL-60(TB) leukemia
[5] = system: HS 578T breast
[6] = system: HT29 colon
[7] = system: KM12 colon
[8] = system: M14 melanoma
[9] = system: MALME-3M melanoma
[10] = system: MDA-MB-435
[11] = system: MOLT-4 leukemia
[12] = system: NCI-H460 lung
[13] = system: NCI-H522 lung
[14] = system: OVCAR-3 ovarian
[15] = system: RXF 393 renal
[16] = system: SK-OV-3 ovarian
[17] = system: T-47D breast
[18] = system: UACC-257 melanoma
[19] = system: UACC-62 melanoma

Row | Compound | TGI [1] [µM] | TGI [2] [µM] | TGI [3] [µM] | TGI [4] [µM] | TGI [5] [µM] | TGI [6] [µM] | TGI [7] [µM] | TGI [8] [µM] | TGI [9] [µM] | TGI [10] [µM] | TGI [11] [µM] | TGI [12] [µM] | TGI [13] [µM] | TGI [14] [µM] | TGI [15] [µM] | TGI [16] [µM] | TGI [17] [µM] | TGI [18] [µM] | TGI [19] [µM] | GI50 [3] [µM]
1 | CCCN(CCCCC(NC(C)=O)C(=O)NCc1ccccc1)C(=O)N(CCCl)N=O (stereo unspecified) | > 100 | > 100 | > 100 | > 86 | > 100 | > 100 | > 100 | > 100 | > 100 | > 100 | > 100 | > 56.2 | > 100 | > 100 | 98.9 | > 100 | > 100 | > 100 | > 100 | 
2 | C1=C2C3=[N+](CCCC3)CC2Cc2ccsc21 (stereo unspecified) | > 100 | > 100 | > 100 | > 100 | > 100 | > 100 | > 100 | > 100 | > 100 | > 100 | > 100 | > 100 | > 100 | > 100 | > 100 | > 100 | > 100 | > 100 | > 100 | 
3 | O=c1[nH]nc(-c2cccc(Br)c2)[nH]1 | > 100 | 79.1 | > 100 | > 100 | 79.7 | > 100 | > 100 | > 100 | > 100 | > 100 | > 100 | > 100 | > 100 | > 100 | > 100 |  | > 100 | > 100 | > 100 | 
4 | Brc1ccc2c(-c3nc(-c4c[nH]c5ccc(Br)cc45)cs3)c[nH]c2c1 | 27.8 | 6.98 | 13.1 | 23.2 | > 52.9 | 3.61 | 8.19 | 13.8 | 19.4 | 18.9 | 8.42 | 8.36 | 4.85 | 28 | 12.4 | 29.4 | 31.9 | 23.6 | > 48.4 | 
5 | c1ccc2c(c1)nc1n2CNCC1 | > 100 | > 100 | > 100 | > 100 | > 100 | > 100 | > 100 | > 100 | > 100 | > 100 | > 100 | > 100 | > 100 | > 100 | > 100 | > 100 | > 100 | > 100 | > 100 | 
6 | N#Cc1nc(COCCOCc2ccccc2)oc1N | > 100 | > 100 | > 100 | > 100 | > 100 | > 100 | > 100 | > 100 | > 100 | > 100 | > 100 | > 100 | > 100 | > 100 | > 100 | > 100 | > 100 | > 100 | > 100 | 
7 | COc1cc(C2c3cc4c(cc3[C@H](OCCN(C)C)[C@@H]3COC(=O)C23)OCO4)cc(OC)c1O (stereo partly specified) | 2.32 | 1.5 | > 100 | 0.118 | 6.04 | 3.01 | 8.95 | 2.58 | 1.73 | 16.9 | 0.684 | 0.766 | 2.35 | 4.08 | 1.55 | 1.31 | 2.52 | 11.4 | 0.496 | 0.344
8 | CCOC(=O)N/N=C(/N)Cc1ccccc1 | > 100 | > 100 | > 100 | > 100 | > 100 |  | > 100 | > 100 | > 100 | > 100 | > 100 | > 100 | > 100 | > 100 | > 100 | > 100 | > 100 | > 100 | > 100 | 
9 | NC(N)=N/N=C/c1c(Cl)nc2sccn12 | > 100 | > 100 |  | 42.1 | 84.8 | 31.6 | 37.4 | 34.5 | 50.3 | > 100 | > 100 | 30.3 | 84 | 90.9 | 65.1 | > 100 | > 100 | 49 | > 100 | 
10 | C=C1CC[C@@]2(OC1)OC1C[C@H]3[C@@H]4CC=C5C[C@@H](O)CC(OC6OCC(OC(=O)[C@@H](O)[C@@H](C)CC)C(OC(C)=O)C6OC6OC(C)C(O)C(O)C6O)[C@]5(C)[C@H]4CC[C@]3(C)C1[C@@H]2C (stereo partly specified) | > 10 | 6.51 | 3.67 | 4.87 | > 10 | > 10 | 5.13 | 4.45 | > 10 | 3.38 | 3.54 | 3.32 | 3.27 | 3.77 | 4.48 | 3.57 | > 10 | 5.48 | 3.37 | 
11 | CC[C@@H]1/C=C/C=C/C[C@H](C)[C@@H](O)[C@](C)(O)C(=O)[C@H](C)[C@@H](O)[C@H](C)C(=O)[C@H](C)[C@@H](O)[C@H](C)/C=C/C(=O)O[C@H]2[C@@H](C)[C@@H](CC1)O[C@]1(O[C@H](CC(C)O)[C@H](C)CC1=O)[C@@H]2C (stereo partly specified) | 10.9 | 5.9 | > 21.2 | 11.4 | > 18.5 | 8.78 | 13 | 9.41 | 14.2 | 10.6 | 11.3 | 6.85 | 6.59 | 13.1 | 7.37 | > 19.2 | > 25 | 3.54 | 6.68 | 
12 | CC(=O)NNc1nc(C)c(C(/C=C/c2cccc([N+](=O)[O-])c2)=N/NC(=S)NN)s1 | > 100 | > 100 | > 100 | > 100 | > 100 | > 100 | > 100 | > 100 | > 100 | > 100 | > 100 | > 100 | > 100 | > 100 | > 100 | > 100 | > 100 | > 100 | > 100 | 
